Assays:
[1] = target: T1, human adenosine A1 receptor (Homo sapiens, UniProt P30542); assay: Reporter gene (CRE/SPAP) agonist assay in CHO cells, adenosine A1 receptor; type: cell-based; settings: CHO cells with human A1 receptor; inhibition of forskolin-stimulated SPAP production; potency relative to NECA=1
T1 construct: expressed in transfected cells; host or cells: Chinese hamster ovary (CHO) cells containing CRE/SPAP/HYG reporter elements
T1 sequence (P30542 1-326): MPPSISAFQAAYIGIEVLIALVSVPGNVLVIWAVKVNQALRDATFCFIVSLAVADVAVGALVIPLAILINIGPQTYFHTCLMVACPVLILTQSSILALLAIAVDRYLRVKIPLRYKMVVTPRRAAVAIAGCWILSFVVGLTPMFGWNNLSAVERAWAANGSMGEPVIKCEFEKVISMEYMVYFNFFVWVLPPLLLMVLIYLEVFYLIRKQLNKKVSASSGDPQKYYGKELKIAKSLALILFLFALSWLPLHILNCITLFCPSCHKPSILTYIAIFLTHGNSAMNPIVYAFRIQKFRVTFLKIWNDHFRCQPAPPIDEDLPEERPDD
Procedure: Agonist activity was measured in Chinese hamster ovary (CHO) cells containing the CRE/SPAP/HYG (CRE=cyclic AMP response element; HYG=hygromycin resistance; SPAP=secreted placental alkaline phosphatase) reporter gene elements, which upon stimulation of cAMP levels produced SPAP. A cell line was used, which was stably transfected with either the human adenosine A1 receptor or the human adenosine A3 receptor in addition to the above elements. Cells were plated out in 96-well plates in culture medium and incubated at 37° C. for 1 hour. […] All cells were then incubated for a further 5 hours at 37° C., and cooled to room temperature, after which a substrate for the phosphatase (para-nitrophenol phosphate, pNPP), which is converted by SPAP to a coloured reagent) was then added and the 96-well plates were read in a plate reader. From these readings, the concentration-dependence of the inhibition by the agonist for forskolin-stimulated SPAP production can be calculated.
(ECR=equipotent concentration ratio relative to NECA=1)

[2] = target: T2, human adenosine A3 receptor (Homo sapiens, UniProt P0DMS8); assay: Reporter gene (CRE/SPAP) agonist assay in CHO cells, adenosine A3 receptor; settings: CHO cells with human A3 receptor; inhibition of forskolin-stimulated SPAP production; potency relative to NECA=1
T2 sequence (P0DMS8 1-318): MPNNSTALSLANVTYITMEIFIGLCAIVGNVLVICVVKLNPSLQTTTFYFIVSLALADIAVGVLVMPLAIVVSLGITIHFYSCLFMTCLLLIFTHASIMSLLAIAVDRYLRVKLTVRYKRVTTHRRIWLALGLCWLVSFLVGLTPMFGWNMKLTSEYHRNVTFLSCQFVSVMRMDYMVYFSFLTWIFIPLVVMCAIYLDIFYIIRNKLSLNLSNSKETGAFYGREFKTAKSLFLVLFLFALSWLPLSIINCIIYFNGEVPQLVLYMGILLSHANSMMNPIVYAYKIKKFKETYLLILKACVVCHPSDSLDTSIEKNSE

OCC(O)CNc1ncnc2c1ncn2[C@@H]1O[C@H](COC(F)(F)F)[C@@H](O)[C@H]1O (relative stereo) [Example 20, N-(rel-2,3-Dihydroxy-propyl)-5′-O-trifiuoromethyl-adenosine]
A1 ECR (equipotent concentration ratio relative to NECA=1) [1]: 24.10 | A3 ECR (equipotent concentration ratio relative to NECA=1) [2]: 284.5

O[C@@H]1[C@H](O)[C@@H](COC(F)(F)F)O[C@H]1n1cnc2c(NC3CCOCC3)ncnc21 [Example 1, N-(Tetrahydro-pyran-4-yl)-5′-O-trifluoromethyladenosine]
A1 ECR (equipotent concentration ratio relative to NECA=1) [1]: 8.40 | A3 ECR (equipotent concentration ratio relative to NECA=1) [2]: >129

O[C@@H]1[C@H](O)[C@@H](COC(F)(F)F)O[C@H]1n1cnc2c(NCCc3ccncc3)ncnc21 [Example 2, N-(2-Pyridin-4-yl-ethyl)-5′-O-trifluoromethyladenosine]
A1 ECR (equipotent concentration ratio relative to NECA=1) [1]: 185.5

O[C@@H]1[C@H](O)[C@@H](COC(F)(F)F)O[C@H]1n1cnc2c(NC3CC4CCC3C4)ncnc21 (stereo partly drawn) [Example 3, N-(exo-Bicyclo[2.2.1]hept-2-yl)-5′-O-trifluoromethyl-adenosine]
A3 ECR (equipotent concentration ratio relative to NECA=1) [2]: 143.5

Nc1ncnc2c1ncn2[C@@H]1O[C@H](COC(F)(F)F)[C@@H](O)[C@H]1O [Example 4, 5′-O-Trifluoromethyladenosine]
A1 ECR (equipotent concentration ratio relative to NECA=1) [1]: 80.7 | A3 ECR (equipotent concentration ratio relative to NECA=1) [2]: 81.6

CNS(=O)(=O)CCNc1ncnc2c1ncn2[C@@H]1O[C@H](COC(F)(F)F)[C@@H](O)[C@H]1O [Example 5, 2-[9-(3R,4S-Dihydroxy-5R-trifluoromethoxymethyl-tetrahydro-furan-2R-yl)-9H-purin-6-ylamino]-ethanesulfonic Acid Methylamide]
A1 ECR (equipotent concentration ratio relative to NECA=1) [1]: 33.2 | A3 ECR (equipotent concentration ratio relative to NECA=1) [2]: >212

O[C@@H]1[C@H](O)[C@@H](COCC(F)(F)F)O[C@H]1n1cnc2c(NC3CCCC3)ncnc21 [Example 6, N-Cyclopentyl-5′-O-(2,2,2-trifluoro-ethyl)-adenosine]
A1 ECR (equipotent concentration ratio relative to NECA=1) [1]: 8.70 | melting point: 74 to 76 °C | A3 ECR (equipotent concentration ratio relative to NECA=1) [2]: 7.7

O[C@@H]1[C@H](O)[C@@H](COCC(F)(F)F)O[C@H]1n1cnc2c(N[C@@H]3CCC[C@H]3O)ncnc21 [Example 8, N-(2R-Hydroxy-cyclopent-(R)-yl)-5′-O-(2,2,2-trifluoro-ethyl)-adenosine]
A1 ECR (equipotent concentration ratio relative to NECA=1) [1]: 239.40

O[C@@H]1[C@H](O)[C@@H](COCC(F)(F)F)O[C@H]1n1cnc2c(Nc3ccc(F)cc3)ncnc21 [Example 9, N-(4-Fluoro-phenyl)-5′-O-(2,2,2-trifluoro-ethyl)-adenosine]
A1 ECR (equipotent concentration ratio relative to NECA=1) [1]: 298 | A3 ECR (equipotent concentration ratio relative to NECA=1) [2]: 19.7

O[C@@H]1[C@H](O)[C@@H](COC(F)(F)F)O[C@H]1n1cnc2c(N[C@H]3CCC[C@@H]3F)ncnc21 [Example 12, N-(2S-Fluoro-cyclopent-(S)-yl)-5′-O-trifluoromethyl-adenosine]
A3 ECR (equipotent concentration ratio relative to NECA=1) [2]: >226

O[C@@H]1[C@H](O)[C@@H](COC(F)(F)F)O[C@H]1n1cnc2c(NC3CCSCC3)ncnc21 [Example 13, N-(Tetrahydro-thiopyran-4-yl)-5′-O-trifluoromethyl-adenosine]
A1 ECR (equipotent concentration ratio relative to NECA=1) [1]: 11.1 | A3 ECR (equipotent concentration ratio relative to NECA=1) [2]: >276

O[C@@H]1[C@H](O)[C@@H](COC(F)(F)F)O[C@H]1n1cnc2c(Nc3ccc(F)c(F)c3)ncnc21 [Example 14, N-(3,4-Difluoro-phenyl)-5′-O-trifluoromethyl-adenosine]
A1 ECR (equipotent concentration ratio relative to NECA=1) [1]: 20.50 | A3 ECR (equipotent concentration ratio relative to NECA=1) [2]: 197.3

O[C@@H]1[C@H](O)[C@@H](COC(F)(F)F)O[C@H]1n1cnc2c(Nc3cccc(F)c3)ncnc21 [Example 15, N-(3-Fluoro-phenyl)-5′-O-trifluoromethyl-adenosine]
A1 ECR (equipotent concentration ratio relative to NECA=1) [1]: 23.2

O=S1(=O)CCC(Nc2ncnc3c2ncn3[C@@H]2O[C@H](COC(F)(F)F)[C@@H](O)[C@H]2O)CC1 [Example 16, N-(1,1-Dioxo-hexahydro-1δ6-thiopyran-4-yl)-5′-O-trifluoromethyl-adenosine]
A1 ECR (equipotent concentration ratio relative to NECA=1) [1]: 79.50 | A3 ECR (equipotent concentration ratio relative to NECA=1) [2]: >207

CC(C)(C)Nc1ncnc2c1ncn2[C@@H]1O[C@H](COC(F)(F)F)[C@@H](O)[C@H]1O [Example 17, N-tert-Butyl-5′-O-trifiuoromethyl-adenosine]
A3 ECR (equipotent concentration ratio relative to NECA=1) [2]: >207

CCOC(=O)N1CCC(Nc2ncnc3c2ncn3[C@@H]2O[C@H](COC(F)(F)F)[C@@H](O)[C@H]2O)CC1 [Example 18, 4-[9-(3R,4S-Dihydroxy-5R-trifluoromethoxymethyl-tetrahydro-furan-2R-yl)-9H-purin-6-ylamino]-piperidine-1-carboxylic Acid Ethyl Ester]
A1 ECR (equipotent concentration ratio relative to NECA=1) [1]: 5.32 | A3 ECR (equipotent concentration ratio relative to NECA=1) [2]: >202

O[C@@H]1[C@H](O)[C@@H](COC(F)(F)F)O[C@H]1n1cnc2c(N[C@H]3CCC[C@@H]3O)ncnc21 [Example 19, N-(2S-Hydroxy-cyclopent-(S)-yl)-5′-O-trifluoromethyl-adenosine]
A3 ECR (equipotent concentration ratio relative to NECA=1) [2]: >150

O[C@@H]1[C@H](O)[C@@H](COC(F)(F)F)O[C@H]1n1cnc2c(N[C@@H]3CCOC3)ncnc21 [Example 21, N-(Tetrahydro-furan-3R-yl)-5′-O-trifluoromethyl-adenosine]
A3 ECR (equipotent concentration ratio relative to NECA=1) [2]: >175

O[C@@H]1[C@H](O)[C@@H](COC(F)(F)F)O[C@H]1n1cnc2c(N[C@H]3CCOC3)ncnc21 [Example 22, N-(Tetrahydro-furan-3S-yl)-5′-O-trifluoromethyl-adenosine]
A3 ECR (equipotent concentration ratio relative to NECA=1) [2]: >63

CC(=O)NCCNc1ncnc2c1ncn2[C@@H]1O[C@H](COC(F)(F)F)[C@@H](O)[C@H]1O [Example 23, N-{2-[9-(3R,4S-Dihydroxy-5R-trifluoromethoxymethyl-tetrahydro-furan-2R-yl)-9H-purin-6-ylamino]-ethyl}-acetamide]
A1 ECR (equipotent concentration ratio relative to NECA=1) [1]: 12.52 | A3 ECR (equipotent concentration ratio relative to NECA=1) [2]: >175

CCOC(=O)N1CCC(Nc2nc(C)nc3c2ncn3[C@@H]2O[C@H](COC(F)(F)F)[C@@H](O)[C@H]2O)CC1 [Example 24, 4-[9-(3R,4S-Dihydroxy-5R-trifluoromethoxymethyl-tetrahydro-furan-2R-yl)-2-methyl-9H-purin-6-ylamino]-piperidine-1-carboxylic Acid Ethyl Ester]
A1 ECR (equipotent concentration ratio relative to NECA=1) [1]: 51.70 | A3 ECR (equipotent concentration ratio relative to NECA=1) [2]: >134

Cc1nc(NC2CCOCC2)c2ncn([C@@H]3O[C@H](COC(F)(F)F)[C@@H](O)[C@H]3O)c2n1 [Example 25, 2-Methyl N-(tetrahydro-pyran-4-yl)-5′-O-trifluoromethyl-adenosine]
A1 ECR (equipotent concentration ratio relative to NECA=1) [1]: 32

Source: patent US6407076B1, “Adenosine analogues and related method of treatment” (SmithKline Beecham Corporation, priority 1997, dated 2002)
